Assay [1] deals with SKHEP1 and Hep 3B cells. The experiment in a line: IC50 of sorafenib or JQ1 in combination with bi-cistronic ZF9-MQ1_ZF3-KRAB. Type of assay: cell-based, human. The following applies: for IC50 of sorafenib: in combination with 0.1 ug/ml bi-cistronic ZF9-MQ1_ZF3-KRAB; for IC50: Homo sapiens.
The test system of assay [2] is Hep 3B cells. The assay can be described thus: Sorafenib dose response viability with bi-cistronic ZF9-MQ1_ZF3-KRAB (CellTiter-GLO). Particulars: Homo sapiens, Hep3B, 72 h. Type of assay: cell-based. The protocol: (§1) In this example, the effect of bi-cistronic ZF9-MQ1_ZF3-KRAB on the small molecule sorafenib (multi-kinase inhibitor) efficacy in HCC cell lines was evaluated. Sorafenib is used as a standard of care in HCC and high MYC levels can predict sorafenib resistance. It was hypothesized that bi-cistronic ZF9-MQ1_ZF3-KRAB may re-sensitize HCC to sorafenib through its downregulation of MYC. Dose response assays were utilized to evaluate if bi-cistronic ZF9-MQ1_ZF3-KRAB treatment could decrease the IC50 of sorafenib.
(§2) To evaluate potential synergy between bi-cistronic ZF9-MQ1_ZF3-KRAB and sorafenib, Hep 3B or SK-HEP-1 cells were plated in 96 well plates at 10,000 cells per well. Cells were then treated with sorafenib at a dose range between 0.1 and 25 μM, with serial dilution of 1:2. Lipid mix carrying bi-cistronic ZF9-MQ1_ZF3-KRAB was then added to a subset of the wells at a dose of 0.1 or 0.6 μg/mL. A set of cells was treated with sorafenib alone to use as control. Following 72-hour treatment, cells were lysed with the CellTiter-GLO® reagent and luminescence was quantified using the Glo Max. Relative cell viability was calculated by averaging the untreated values and dividing each experimental luciferase value by that average.
A general note: Cellular ATP, detected with luciferase, serves as a proxy for viable cell number.

Assay [3] has as its system SK-HEP-1 cells. The assay is described as above. Particulars: Homo sapiens, SK-HEP1, 72 h, SKHEP-1, 72-hour. Type of assay: cell-based. How it is done:
as §1, §2

Assay [4] relates to subcutaneous H460 tumors. The assay can be described thus: H460 subcutaneous tumor model in nude mice. Type of assay: in vivo, mouse. The following applies: 50 mg/kg daily. The protocol: Disease was induced in nude mice by the implantation of subcutaneous H460 tumor cells into the left flank. Treatment was initiated when mean tumor volume reached approximately 100-150 mm^3. Mice were divided into treatment groups so that mean tumor volume in each group were approximately equal. Tumors were treated with PBS (vehicle), sorafenib (standard of care), non-coding RNA formulated in MC3 LNPs, or ZF9-MQ1 mRNA formulated in MC3 LNPs. PBS, Non-coding RNA (SEQ ID NO: 198) LNP and ZF9-MQ1 LNP were dosed at 3 mg/kg administered every five days. Sorafenib was dosed daily at 50 mg/kg. The length and width of tumors were measured twice weekly. Tumor volumes were calculated as (width^2×length)/2.

Assay [5] relates to MYC. The experiment in a line: MYC mRNA expression by qPCR in human HCC cell lines after LNP transfection. The format is cell-based. The following applies: HepG2, Hep3B and SKHEP1. The protocol: In this example, dCas9-KRAB mRNA was delivered to human HCC cell lines (HepG2, Hep3B and SKHEP1) with individual sgRNA (Table 1 and FIG. 1A-B) targeting it to the CTCF motif (GD-28616), CTCF “anchor” site (GD-28859), or the MYC promoter (GD-28617). The effector mRNA and sgRNA were co-delivered using LNP delivery with SSOP. For controls, both (1) dCas9 (no effector) combined with sgRNA, and (2) untreated cells were used to assess changes. HCC cells were seeded in 96-well plates in growth media (5000 cell/well). LNP formulations (2-2.5 ug/ml) were then added to the cells to transfect the mRNA and sgRNA. All treatments were done in biological triplicate. Timepoints ranging from 24-168 hours were assessed for MYC expression and cell viability. RNA was isolated from four independent experiments using the RNeasy® plus 96-well Kit (Qiagen) following the Manufacture's protocol. RNA samples were retrotranscribed to cDNA using LunaScript® RT SuperMix Kit (NEB) and analyzed by quantitative PCR (qPCR) (in technical triplicates) using a MYC specific TaqMan™ primer/probe set assay with the TaqMan™ Fast Advanced Master Mix (Thermo Scientific). MYC expression was quantified relative to the expression of GAPDH reference genes using the ΔΔCt method. The untreated and dCas9(no-effector) samples were used as calibrators. […]
Background: Quantitative PCR measures a nucleic acid by following its amplification.

Assay [6] relates to HCC cells (HepG2, Hep3B, SKHEP1, SNU-182, SNU-449). The assay can be described thus: Cell viability (CellTiter-GLO) of human HCC cell lines. The format is cell-based. The following applies: 72 and 168 hours. The text has this:
This example describes down-regulating MYC1 expression by targeting KRAB effector fused to zinc finger domains to the upstream region directly adjacent to the CTCF motif (GD-28859). In this example, zinc finger-directed KRAB effectors (ZF-KRAB effectors) were designed to bind the anchor site at the DNA region targeted by GD-28859 (FIG. 4A). 7 constructs (dCas-KRAB/GD-59, ZF1-KRAB, ZF2-KRAB, ZF3-KRAB, ZF4-KRAB, ZF5-KRAB, and ZF6-KRAB) were designed and screened in human HCC models (HepG2, Hep3B, SKHEP1). Negative controls for these experiments included untreated cells and dCas9-KRAB/GD-28859 was used as positive control. RNA was isolated from two independent experiments, each done in biological triplicate, using the Rneasy® Plus 96-well Kit (Qiagen) following the Manufacture's protocol. RNA samples were retrotranscribed to cDNA using LunaScript® RT SuperMix Kit (NEB) and analyzed by quantitative PCR (qPCR) (in technical triplicates) using a MYC specific Taqman primer/probe set assay with the TaqMan™ Fast Advanced Master Mix (Thermo Scientific). MYC expression was quantified relative to the expression of GAPDH reference genes using the ΔΔCt method, the untreated and dCas9(no-effector) samples were used as calibrators. Cell viability was assessed by ATP quantification using CellTiter-GLO® Luminescent Cell Viability Assay (Promega #G9241). […]

Assay [7] has as its system MYC super-enhancer and MYC promoter region. The experiment in a line: Targeted bisulfite sequencing of super-enhancer and promoter regions in NCI-H2009. The format is cell-based, human. The following applies: guides 29833 and 29914, 72 hours. The protocol:
The CRISPR-dCas9 system was modified by tethering it to epigenetic repressor: MQ1. These molecules modulate transcriptional repression methylating the CpG nucleotides of the DNA. The effector mRNA and super-enhancer guide RNAs (29833 and 29914) were co-delivered using LNP delivery with SSOP with mRNA delivery of GFP or a dCAS9-no effector construct (dCas9-NE) as negative controls. NCSLC cell line NCI-H2009 was seeded in a 6 well plates in growth media (˜100000 cells/well). LNP formulations (2.5 ug/ml) were then added to the cells to transfect the effector mRNA/guide RNA then incubated for 72 hours. DNA was isolated using Lucigen QuickExtract™ DNA extraction kit and methylated regions were determined using targeted bisulfite sequencing of the promoter and super-enhancer regions.

The mark [8] stands for this setting: bi-cistronic ZF9-MQ1_ZF3-KRAB 0 μg/ml.
Where [9] appears, read: bi-cistronic ZF9-MQ1_ZF3-KRAB 0.1 μg/ml.
[10] abbreviates: bi-cistronic ZF9-MQ1_ZF3-KRAB 0.6 μg/ml.

Entries after “also recorded” stand apart in the source; their conditions may differ.

For the molecule `CNC(=O)c1cc(Oc2ccc(NC(=O)Nc3ccc(Cl)c(C(F)(F)F)c3)cc2)ccn1` [sorafenib], the IC50 of sorafenib entry in assay [1] (Hep 3B) and in assay [1] (SKHEP1) was “did not change significantly” throughout. For the same molecule, the concentration for half-maximal inhibition (IC50) in assay [1] (Hep3B, Hep 3B, in combination with 0.6 ug/ml bi-cistronic ZF9-MQ1_ZF3-KRAB) came out at 2.9 µM; in assay [1] (Hep3B, Hep 3B, sorafenib without bi-cistronic ZF9-MQ1_ZF3-KRAB) it was 4.4 µM; in assay [1] (SK-HEP1, SKHEP1, in combination with 0.6 ug/ml bi-cistronic ZF9-MQ1_ZF3-KRAB), 10.7 µM; in assay [1] (SK-HEP1, SKHEP1, sorafenib without bi-cistronic ZF9-MQ1_ZF3-KRAB), 12.3 µM; in assay [2] (setting [8]) it was 4.4 µM; in assay [2] (setting [9]) it was 4.25 µM. For the same molecule, the IC50 in assay [2] (setting [10]) was 2.9 µM; in assay [3] (setting [8]), 12.3 µM; in assay [3] (setting [9]), 12.3 µM; in assay [3] (setting [10]) it was 10.7 µM. Moreover, the “average tumor volume at the study termination” value in assay [4] was determined as 752 mm^3.

With “dCas9-MQ1: dCas9 fused to MQ1, SEQ ID NO: 35”, the “MYC mRNA down-regulation” value in assay [5] (72 hours) is reported as 50-90%. In addition, in assay [5], the “MYC expression down-regulation (in words)” value is “significantly greater effect on MYC expression than any of the human dCas9-DNMTs examined or dCas9-KRAB; also recorded: down-regulated MYC expression”. Further, the “effect on viability (in words)” value in assay [6] (HepG2 and Hep3B) is reported as “dramatically decreased viability”; in assay [6] (SK-HEP-1) it was “minimally affected”. Moreover, the “methylation of the distal promoter region” value in assay [7] is listed as “about 50%”.

In general, IC50 refers to the concentration at which inhibition is half-maximal.
